± gives the expanded uncertainty stated by the source.
Columns and labels:
[1] = molar heat capacity at constant pressure; xn = mol fraction of the nth substance listed; conditions: Liquid, Flow calorimetry
[2] = molar heat capacity at constant pressure; conditions: Liquid, Flow calorimetry

CCCCCCCCCCCC(=O)OC [methyl dodecanoate] + CCCCCCCCCC(=O)OC
[1]
Conditions	molar heat capacity at constant pressure [J/K/mol]
313.71 K, 100 kPa, x1 = 0.5001	414.9 ± 4.2
313.82 K, 4060 kPa, x1 = 0.5001	413.3 ± 4.2
313.83 K, 8100 kPa, x1 = 0.5001	412.3 ± 4.2
313.97 K, 100 kPa, x1 = 1	442.6 ± 4.5
313.99 K, 4040 kPa, x1 = 1	441.6 ± 4.5
313.99 K, 12140 kPa, x1 = 0.5001	410.1 ± 4.1
314.01 K, 100 kPa, x1 = 0.6999	426.4 ± 4.3
314.01 K, 16150 kPa, x1 = 0.5001	408.9 ± 4.1
314.06 K, 8070 kPa, x1 = 1	439.5 ± 4.4
314.08 K, 4080 kPa, x1 = 0.6999	425.1 ± 4.3
314.09 K, 12160 kPa, x1 = 1	438.3 ± 4.4
314.14 K, 16180 kPa, x1 = 1	436.9 ± 4.4
314.17 K, 12080 kPa, x1 = 0.6999	421.2 ± 4.3
314.18 K, 8140 kPa, x1 = 0.6999	422.7 ± 4.3
314.21 K, 16150 kPa, x1 = 0.6999	419.4 ± 4.2
314.37 K, 100 kPa, x1 = 0.3001	403.7 ± 4.1
314.53 K, 4090 kPa, x1 = 0.3001	402.2 ± 4.1
314.71 K, 8010 kPa, x1 = 0.3001	400.6 ± 4
314.95 K, 12020 kPa, x1 = 0.3001	397.7 ± 4
315.06 K, 16080 kPa, x1 = 0.3001	395.6 ± 4
323.53 K, 100 kPa, x1 = 0.3001	412 ± 4.2
323.58 K, 4100 kPa, x1 = 0.3001	409.5 ± 4.1
323.69 K, 8070 kPa, x1 = 0.3001	406.9 ± 4.1
323.84 K, 12080 kPa, x1 = 0.3001	403.9 ± 4.1
323.84 K, 12090 kPa, x1 = 1	444.8 ± 4.5
323.88 K, 100 kPa, x1 = 1	449.5 ± 4.5
323.93 K, 4070 kPa, x1 = 1	447.2 ± 4.5
323.94 K, 16080 kPa, x1 = 1	443.3 ± 4.5
324.01 K, 8060 kPa, x1 = 1	445.8 ± 4.5
324.05 K, 100 kPa, x1 = 0.6999	435.5 ± 4.4
324.08 K, 4120 kPa, x1 = 0.6999	433.4 ± 4.4
324.13 K, 8050 kPa, x1 = 0.6999	431.3 ± 4.4
324.19 K, 12080 kPa, x1 = 0.6999	428.2 ± 4.3
324.24 K, 16120 kPa, x1 = 0.6999	426.4 ± 4.3
324.39 K, 16190 kPa, x1 = 0.3001	400.5 ± 4
324.79 K, 100 kPa, x1 = 0.5001	424.4 ± 4.3
324.79 K, 4150 kPa, x1 = 0.5001	421.6 ± 4.3
325.01 K, 8140 kPa, x1 = 0.5001	418.7 ± 4.2
325.06 K, 12110 kPa, x1 = 0.5001	416.1 ± 4.2
325.2 K, 16230 kPa, x1 = 0.5001	413.7 ± 4.2
333.55 K, 100 kPa, x1 = 0.3001	418.3 ± 4.2
333.71 K, 100 kPa, x1 = 0.6999	442.8 ± 4.5
333.76 K, 4130 kPa, x1 = 0.3001	415.8 ± 4.2
333.79 K, 8110 kPa, x1 = 0.3001	413.5 ± 4.2
333.88 K, 100 kPa, x1 = 1	456.4 ± 4.6
333.96 K, 4050 kPa, x1 = 1	453.6 ± 4.6
333.97 K, 12160 kPa, x1 = 0.6999	434.7 ± 4.4
333.98 K, 4150 kPa, x1 = 0.6999	440.9 ± 4.5
334 K, 8050 kPa, x1 = 1	452.1 ± 4.6
334.03 K, 12080 kPa, x1 = 0.3001	411.7 ± 4.2
334.04 K, 8040 kPa, x1 = 0.6999	439 ± 4.4
334.04 K, 16170 kPa, x1 = 0.6999	431.9 ± 4.4
334.05 K, 12060 kPa, x1 = 1	450.5 ± 4.6
334.11 K, 16170 kPa, x1 = 1	448 ± 4.5
334.12 K, 100 kPa, x1 = 0.5001	431.7 ± 4.4
334.21 K, 16110 kPa, x1 = 0.3001	408.4 ± 4.1
334.33 K, 8140 kPa, x1 = 0.5001	425.5 ± 4.3
334.53 K, 4120 kPa, x1 = 0.5001	428.8 ± 4.3
334.6 K, 12200 kPa, x1 = 0.5001	423.1 ± 4.3
334.84 K, 16030 kPa, x1 = 0.5001	420.7 ± 4.3

CCCCCCCCCC(=O)OC [methyl decanoate]
[2]
Conditions	molar heat capacity at constant pressure [J/K/mol]
313.71 K, 100 kPa	383.9 ± 3.9
313.82 K, 4070 kPa	382.1 ± 3.9
313.83 K, 8030 kPa	380.5 ± 3.8
313.99 K, 12010 kPa	378.5 ± 3.8
314.01 K, 16140 kPa	376.6 ± 3.8
324.79 K, 100 kPa	387.6 ± 3.9
324.79 K, 4070 kPa	386 ± 3.9
325.01 K, 8030 kPa	384.4 ± 3.9
325.06 K, 12010 kPa	382.5 ± 3.9
325.2 K, 16140 kPa	379.3 ± 3.8
334.12 K, 100 kPa	393.2 ± 4
334.33 K, 8030 kPa	388.3 ± 3.9
334.53 K, 4070 kPa	390.3 ± 3.9
334.6 K, 12010 kPa	386.2 ± 3.9
334.84 K, 16140 kPa	384.2 ± 3.9

CCCCCCCCCC(=O)OC [methyl decanoate] + CCCCCCCCCCCC(=O)OC
[1], x2 = 0
Conditions	molar heat capacity at constant pressure [J/K/mol]
313.71 K, 100 kPa	383.9 ± 3.9
313.82 K, 4070 kPa	382.1 ± 3.9
313.83 K, 8030 kPa	380.5 ± 3.8
313.99 K, 12010 kPa	378.5 ± 3.8
314.01 K, 16140 kPa	376.6 ± 3.8
324.79 K, 100 kPa	387.6 ± 3.9
324.79 K, 4070 kPa	386 ± 3.9
325.01 K, 8030 kPa	384.4 ± 3.9
325.06 K, 12010 kPa	382.5 ± 3.9
325.2 K, 16140 kPa	379.3 ± 3.8
334.12 K, 100 kPa	393.2 ± 4
334.33 K, 8030 kPa	388.3 ± 3.9
334.53 K, 4070 kPa	390.3 ± 3.9
334.6 K, 12010 kPa	386.2 ± 3.9
334.84 K, 16140 kPa	384.2 ± 3.9

CCCCCCCCCCCC(=O)OC [methyl dodecanoate]
[2]
Conditions	molar heat capacity at constant pressure [J/K/mol]
313.97 K, 100 kPa	442.6 ± 4.5
313.99 K, 4040 kPa	441.6 ± 4.5
314.06 K, 8070 kPa	439.5 ± 4.4
314.09 K, 12160 kPa	438.3 ± 4.4
314.14 K, 16180 kPa	436.9 ± 4.4
323.84 K, 12090 kPa	444.8 ± 4.5
323.88 K, 100 kPa	449.5 ± 4.5
323.93 K, 4070 kPa	447.2 ± 4.5
323.94 K, 16080 kPa	443.3 ± 4.5
324.01 K, 8060 kPa	445.8 ± 4.5
333.88 K, 100 kPa	456.4 ± 4.6
333.96 K, 4050 kPa	453.6 ± 4.6
334 K, 8050 kPa	452.1 ± 4.6
334.05 K, 12060 kPa	450.5 ± 4.6
334.11 K, 16170 kPa	448 ± 4.5
